Data taken from patent US7312196B2, “Formulations for amylin agonist peptides” (Amylin Pharmaceuticals, Inc., priority 1998, dated 2007).

Experiments:
Format in all cases: physicochemical
[1] = short term mixing compatibility with insulin in the same syringe; conditions: depending on type of insulin and volume ratio
Excerpt: The formulations reported in Tables A and B are also compatible when mixed in a syringe with commercially available insulin products. […] As outlined by Brange et al, “Insulin Structure and Stability,” in Stability and Characterization of Protein and Peptide Drugs: Case Histories, 1993, Wang et al. (Ed), Plenum Press, NY, insulin has an isoelectric precipitation zone pH range of 4.5-6.5, within 1 pH unit from isoelectric point. Therefore, while not seeking to be bound by theory, if the pH of the insulin product drops from 7.2±0.2 to pH in the isoelectric precipitation range it may cause insulin to precipitate. Thus, clarity of the solution mixture was used as a criteria for preliminary compatibility studies. The insulin volumes used in this study (Table C) cover the maximum and minimum ranges typical for Type I diabetic patients. The formulation with higher buffer capacity (Table C) forms a clear solution faster than the lower buffer capacity formulation. However, at 0.01% of the peptide label strength both formulations form a clear solution with insulin within approximately one minute. In a syringe, one minute can be considered to be instantaneous mixing. The higher label strength of the peptide (0.015% or higher) results in lower dose volume and may require longer than a minute to form a clear solution. […]

[2] = pH-rate profile: stability of the peptide at pH 4.0-5.5, 45° C.; conditions: 60 mM acetate buffer, 4.1% mannitol, 0.3% m-cresol
Experimental: This example describes two preferred liquid formulations for pramlintide. Major degradation pathways for the peptide are […] and peptide bond hydrolysis. Therefore, the stability of the peptide was investigated in the pH region of 4.0-5.5 at 45° C. […] The following formulation was developed: […]

[3] = adsorption onto glass container in liquid form
Excerpt: However, with regard to amylin agonists or amylins which do have such a tendency when in liquid form, a surfactant should be used in their formulation. These formulations may then be lyophilized. Surfactants frequently cause denaturation of protein, both of hydrophobic disruption and by salt bridge separation. Relatively low concentrations of surfactant may exert a potent denaturing activity, because of the strong interactions between surfactant moieties and the reactive sites on proteins. However, judicious use of this interaction can stabilize proteins against interfacial or surface denaturation. Surfactants which could further stabilize the peptide may optionally be present in the range of about 0.001 to 0.3% (w/v) of the total formulation and include polysorbate 80 (i.e., polyoxyethylene(20) sorbitan monooleate), CHAPS® (i.e., 3-[(3-cholamidopropyl) dimethylammonio] 1-propanesulfonate), Brij® (e.g., Brij 35, which is (polyoxyethylene (23) lauryl ether), poloxamer, or another non-ionic surfactant.

CC[C@H](C)[C@H](NC(=O)[C@@H]1CCCN1C(=O)CNC(=O)[C@H](Cc1ccccc1)NC(=O)[C@H](CC(N)=O)NC(=O)[C@H](CC(N)=O)NC(=O)[C@H](CO)NC(=O)[C@H](CO)NC(=O)[C@H](Cc1c[nH]cn1)NC(=O)[C@@H](NC(=O)[C@H](CC(C)C)NC(=O)[C@H](Cc1ccccc1)NC(=O)[C@H](CC(N)=O)NC(=O)[C@H](C)NC(=O)[C@H](CC(C)C)NC(=O)[C@H](CCCNC(=N)N)NC(=O)[C@H](CCC(N)=O)NC(=O)[C@@H](NC(=O)[C@H](C)NC(=O)[C@@H]1CSSC[C@H](NC(=O)[C@@H](N)CCCCN)C(=O)N[C@@H](CC(N)=O)C(=O)N[C@@H]([C@@H](C)O)C(=O)N[C@@H](C)C(=O)N[C@@H]([C@@H](C)O)C(=O)N1)[C@@H](C)O)C(C)C)C(=O)N[C@@H](CC(C)C)C(=O)N1CCC[C@H]1C(=O)N1CCC[C@H]1C(=O)N[C@H](C(=O)N[C@@H](CC(N)=O)C(=O)N[C@H](C(=O)NCC(=O)N[C@@H](CO)C(=O)N[C@@H](CC(N)=O)C(=O)N[C@H](C(=O)N[C@@H](Cc1ccc(O)cc1)C(N)=O)[C@@H](C)O)C(C)C)[C@@H](C)O [pramlintide, ^25,28,29Pro-h-amylin]
time insulin and peptide formulation can remain in the same syringe retaining activity and stability [1]: at least 24 hours
stability of the peptide over the pH range studied [2]: most stable at pH 4.0
tendency to adsorb onto glass [3]: does not have a tendency to adsorb onto the glass
